The results in this text go back to article PMC5668913 (Biochemistry and Biophysics Reports, 2015).

Broadly, the Kd is the free concentration of one partner at which half of the binding sites on the other are occupied at equilibrium, for simple one-to-one binding.

This test deals with T1, MbRIP1 (type 1 ribosome inactivating protein from Momordica balsamina) (Momordica balsamina, UniProt D9J2T9).
T1 sequence (D9J2T9 1-246): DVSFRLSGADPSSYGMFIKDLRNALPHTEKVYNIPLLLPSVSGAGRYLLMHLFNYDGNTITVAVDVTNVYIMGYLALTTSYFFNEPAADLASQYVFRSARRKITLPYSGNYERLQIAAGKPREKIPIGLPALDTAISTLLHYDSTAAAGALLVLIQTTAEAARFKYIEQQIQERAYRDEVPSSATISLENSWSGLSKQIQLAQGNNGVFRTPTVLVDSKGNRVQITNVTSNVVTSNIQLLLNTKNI
The test is described as follows: Binding studies using fluorescence.

Take `Nc1ccn([C@@H]2O[C@H](CO)[C@@H](O)[C@H]2O)c(=O)n1` [CYT, cytidine]: the Kd is approximately 5 µM.

`Nc1cc[nH]c(=O)n1` [CYS, cytosine] displayed a Kd of approximately 230 µM.
